Experiments:
VHL Elongin B/C complex = target: T1, VHL Elongin B/C complex (Homo sapiens, UniProt P40337); assay: Fluorescence Polarization (FP) VHL Binding Assay; conditions: fluorescence polarization tracer competition; geometric mean where more than one measurement
T1 construct: amino acids E55-D213 of human VHL; His6 (N); TEV-protease cleavage site (N); made in house; host or cells: E. coli
Description: The binding of test compounds to the VHL Elongin B/C complex is measured using a fluorescence polarization tracer competition assay. The VHL/Elongin B/C protein complex used in the assay is generated as follows. The coding region for amino acids E55-D213 of human VHL with N-terminal His6 tag with a TEV-protease cleavage site is co-expressed with Elongin B (residues M1-Q118) and Elongin C (Residues M17-C112) in E. coli. The VHL/Elongin B/C complex is purified using an affinity nickel column, anion exchange HiTrap QP HP column chromatography, and gel filtration using a Superdex 75 26/60 column. […] A VHL fluorescence polarization probe consists of a VHL ligand coupled to carboxytetramethylrhodamine (TAMRA); (2S,4R)—N-(2-(2-(3′,6′-bis(dimethylamino)-3-oxo-3H-spiro[isobenzofuran-1,9′-xanthene]-5-carboxamido)ethoxy)-4-(4-methylthiazol-5-yl)benzyl)-4-hydroxy-1-((R)-3-methyl-2-(3-methylisoxazol-5-yl)butanoyl)pyrrolidine-2-carboxamide. […] A “pre-assay” fluorescence measurement is made using an Infinite® M1000 (Tecan) plate reader (Excitation 530 nm, Emission 574 nm, Bandwidth 10 nm). […] “Post-assay” fluorescence polarization measurements are made as described for the “pre-assay” fluorescence measurement. […] The data are analyzed using Genedata Screener software and normalized to the “no VHL control” and “VHL control” (without compound). […]

[1] = target: T2, NanoLuc VHL fusion protein stably expressed in HEK 293 cells (Homo sapiens, UniProt P40337); assay: VHL HEK-293 BRET Assay (VHL NanoBRET Target Engagement Assay); type: cell-based; conditions: for IC50: HEK293 cells, nanoBRET, geometric mean where more than one measurement, read-out: VHL binding in cells (HEK293 nanoBRET); for Ratio cell permeability shift: ratio of nanoBRET in cells to nanoBRET +Digitonin
T2 construct: expressed in transfected cells
Description: The VHL NanoBRET™ Target Engagement Assay analyzes the apparent affinity of test compounds for VHL in cells by competitive displacement of a VHL NanoBRET™ tracer reversibly bound to a NanoLuc® VHL fusion protein stably expressed in the cells.
Test compounds were transferred to the assay plate (384 Well White Non-Binding Corning Assay Plates (Corning-3574)) using an Echo 555 Liquid Handler (Labcyte) in 2.5 nL increments and, as appropriate, intermediate stock concentrations of compounds, in order to prepare a titration series. 50 nL of control compound (10 mM; parental unlabeled VHL antagonist; see structure below) and 50 nL of DMSO (negative control) were dispensed into the appropriate control wells. DMSO was backfilled to a final volume of 50 nL as required. 50 nl per well of 1 mM VHL NanoBRET™ Tracer in DMSO (NanoBRET™ Tracer-PEG2-590 (see structure below)) was transferred into each well using an Echo 555 (ultimately yielding a final concentration of 1 uM). HEK 293 RT VHL-NanoLuc® stable cells were cultured in DMEM High Glucose with Pyruvate, 10% fetal bovine serum, 2 mg/mL of Geneticin Selective Antibiotic (50 mg/ml) and 2 mM HEPES (1 M). Cells were seeded in Opti-MEM (Life Technologies-11058-021), 1.7×10^5 cells/mL, 40 μl per well into the assay plate, centrifuged at 500 rpm for 30 seconds and incubated for 2 hours. Max Signal control wells consisted of DMSO only treated wells. Minimum Signal control wells contained of 10 uM parental unlabeled VHL antagonist (control compound—see structure below). 3× Complete Substrate plus Inhibitor Solution was prepared in Opti-MEM (consists of a 1:166 dilution of NanoBRET™ Nano-Glo® Substrate plus a 1:500 dilution of Extracellular NanoLuc® Inhibitor in Opti-MEM), and 20 ul was dispensed into each well of the 384-well plate and centrifuged at 1000 rpm for 1 minute, then incubated for 2 minutes at room temperature. Background Signal control wells were prepared without tracer for background correction steps.
Plates were read using a PerkinElmer Envision Reader (model 2104-0020) equipped with Luminescence option (Mirror: BRET2 Enh (PE Barcode 659), Emission Filter: Omega 610LP (Barcode 504), 2nd Emission Filter: Umbelliferone 460 (Barcode 207), Measurement height: 6.5 mm, Measurement time: 1 s). The raw BRET ratio values were calculated by dividing the acceptor emission value (610 nm) by the donor emission value (460 nm) for each sample. To correct for background, the BRET ratio in the absence of tracer (average of no-tracer control samples) was subtracted from the BRET ratio of each sample. Raw BRET units were converted to milliBRET units (mBU) by multiplying each raw BRET value by 1,000. The normalized NanoBRET™ signal was calculated relative to the Max Signal control wells (DMSO treated control wells) and the Minimum Signal control wells. Percentage inhibition was calculated relative to the Minimum Signal control and Maximum Signal control wells. IC50 values were derived by four parameter curve fitting using the Robust method.

VHL = target: T3, VHL (Homo sapiens, UniProt P40337); assay: VHL nanoBRET (+Digitonin); type: cell-based
T3 construct: expressed in transfected cells
T3 sequence (P40337 whole entry): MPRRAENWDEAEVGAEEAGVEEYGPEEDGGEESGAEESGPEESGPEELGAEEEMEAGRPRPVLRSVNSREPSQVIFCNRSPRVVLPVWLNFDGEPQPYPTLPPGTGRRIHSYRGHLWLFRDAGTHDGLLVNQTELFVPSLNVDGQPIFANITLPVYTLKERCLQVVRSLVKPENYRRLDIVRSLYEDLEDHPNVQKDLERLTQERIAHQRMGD
T3 sequence (Q15370 whole entry partner): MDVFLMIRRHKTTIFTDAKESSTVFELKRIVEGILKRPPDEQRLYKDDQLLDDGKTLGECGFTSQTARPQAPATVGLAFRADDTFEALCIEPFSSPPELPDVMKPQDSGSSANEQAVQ
T3 sequence (Q15369 whole entry partner): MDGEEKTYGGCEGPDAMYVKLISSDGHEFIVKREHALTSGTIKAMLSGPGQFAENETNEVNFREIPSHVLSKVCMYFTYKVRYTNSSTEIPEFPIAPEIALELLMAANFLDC

T2 sequence (P40337 whole entry, the tested form may be a part): as the sequence (P40337 whole entry) above
T2 sequence (Q15370 whole entry partner, the tested form may be a part): as the sequence (Q15370 whole entry partner) above
T2 sequence (Q15369 whole entry partner, the tested form may be a part): as the sequence (Q15369 whole entry partner) above
T1 sequence (P40337 55-213): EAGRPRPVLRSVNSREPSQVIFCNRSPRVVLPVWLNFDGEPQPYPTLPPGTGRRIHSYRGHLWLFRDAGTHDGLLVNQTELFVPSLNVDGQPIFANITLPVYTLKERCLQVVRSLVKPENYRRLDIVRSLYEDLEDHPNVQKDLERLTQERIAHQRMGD
T1 sequence (Q15370 whole entry partner, the tested form may be a part): as the sequence (Q15370 whole entry partner) above
T1 sequence (Q15369 17-112 partner limits assumed): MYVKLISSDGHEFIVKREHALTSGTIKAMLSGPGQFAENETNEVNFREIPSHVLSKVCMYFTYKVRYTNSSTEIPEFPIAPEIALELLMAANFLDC

Row | SMILES | IC50 (VHL Elongin B/C complex) [µM] | IC50 [1] [µM] | Ratio cell permeability shift [1] | EC50 (VHL) [µM]
1 | CC(C)(C)[C@@H](C(=O)N1C[C@H](O)C[C@H]1C(N)=O)n1cc(C2CC2)nn1 [Final product from Example S1, (2S,4R)-1-((S)-2-(4-cyclopropyl-1H-1,2,3-triazol-1-yl)-3,3-dimethylbutanoyl)-4-hydroxypyrrolidine-2-carboxamide] | 1.17 | 2 | 1.71 | 2.14
2 | CC(C)(C)[C@@H](C(=O)N1C[C@H](O)C[C@H]1C(=O)NC1CC1)n1cc(C2CC2)nn1 [Final product from Example S13, (2S,4R)—N-cyclopropyl-1-((S)-2-(4-cyclopropyl-1H-1,2,3-triazol-1-yl)-3,3-dimethylbutanoyl)-4-hydroxypyrrolidine-2-carboxamide] |  | 9.68 | 1.54 | 6.27
3 | CNC(=O)[C@@H]1C[C@@H](O)CN1C(=O)C(=C(C)C)n1cc(C2CC2)nn1 [Final product from Example S27, (2S, 4R)-1-[2-(4-cyclopropyltriazol-1-yl)-3-methyl-but-2-enoyl]-4-hydroxy-N-methyl-pyrrolidine-2-carboxamide] |  |  | 0.96 | 4.94
4 | CC(C)[C@@H](C(=O)N1C[C@H](O)C[C@H]1C(=O)N(C)C)n1cc(C2CC2)nn1 [Final product from Example S41, (2S,4R)-1-((S)-2-(4-cyclopropyl-1H-1,2,3-triazol-1-yl)-3-methylbutanoyl)-4-hydroxy-N,N-dimethylpyrrolidine-2-carboxamide] |  | 49.9 | 0.69 | 72.3
